Experimental findings from ChEMBL document CHEMBL1156829 (Proc Natl Acad Sci U S A, 2008) are described below.

Data set [1] has as its system Plasmodium falciparum. Kind of data set: NOVARTIS: Inhibition of Plasmodium falciparum 3D7 (drug-susceptible) proliferation in erythrocyte-based infection assay. It counts as functional, organism-based. The conditions noted are these: Plasmodium falciparum, 3D7.
For data set [2], the system named is Plasmodium falciparum. As to the kind of experiment: NOVARTIS: Inhibition of Plasmodium falciparum W2 (drug-resistant) proliferation in erythrocyte-based infection assay. It counts as functional, organism-based. The conditions noted are these: Plasmodium falciparum, W2; read-out: EC50.
Data set [3] is described as follows: NOVARTIS: Cytotoxicity against human hepatocellular carcinoma cell line (Huh7). The conditions noted are these: Huh7 cells (hepatocellular carcinoma cell line). In kind it is toxicity, cell-based, Huh-7.

In the case of `Oc1ccc(Nc2ccnc3cc(Cl)ccc23)cc1`, the results for the EC50 in data set [1] and in data set [2] were 3370 nM and 3520 nM, respectively. Moreover, the CC50 in data set [3] amounted to 39700 nM.
The like results for `Cc1ccc(C(=O)N(CCc2ccccc2)C(C)c2nc3ccccc3c(=O)n2-c2cccc(Cl)c2C)cc1[N+](=O)[O-]` (centres undefined) were, in that order, above 1620 nM, 887 nM and above 10000 nM.
As to `CN(C)C(=O)O[n+]1ccc(N(C)C)cc1`, the EC50 in data set [1] is above 990 nM; in data set [2], above 897 nM. The half-maximal cytotoxic concentration (CC50) in data set [3] was above 10000 nM.
As for `Clc1cc(N2CCCCC2)c(Cl)nn1`, the EC50 was above 1250 nM in data set [1] and above 892 nM in data set [2]. In addition, the CC50 in data set [3] was above 10000 nM.
The like results for `Oc1ccccc1Nc1nc(NCc2ccccc2)c2ccccc2n1` were, in that order, 277 nM, 1120 nM and 12500 nM.
With `O=c1[nH]c(N2CCCC2)nc2c1CCN(Cc1coc3ccccc3c1=O)C2`, the concentration giving a half-maximal response (EC50) in data set [1] is above 1250 nM; in data set [2] it was above 896 nM. The compound further yielded a CC50 in data set [3] above 10000 nM.
In the case of `Cc1nc2ccccc2c(=O)n1-c1ccc([N+](=O)[O-])cc1`, the concentration giving a half-maximal response (EC50) was determined as 765 nM in data set [1] and 896 nM in data set [2]. The CC50 in data set [3] was above 10000 nM.
The like results for `CCCCCN(C(=O)c1ccc(C)cc1)C(C)c1nc2ccccc2c(=O)n1-c1ccccc1CC` (centres undefined) were, in that order, above 1620 nM, 895 nM and above 10000 nM.
The like results for `COc1ccc(OC)c(C(=O)c2oc3ccccc3c2NC(=O)CCl)c1` were, in that order, 10200 nM, 1380 nM and 15500 nM.
On to `COc1ccc(/C=C/C(=O)Nc2ccc(S(=O)(=O)N3CCOCC3)cc2)cc1`, for which the results for the concentration giving a half-maximal response (EC50) in data set [1] and in data set [2] were above 1620 nM and 891 nM, respectively. In data set [3], the CC50 is above 10000 nM.
Taken in the same sequence, the figures for `O=C(N/C(=C/C=C/c1ccccc1)C(=O)N1CCCCC1)c1ccc([N+](=O)[O-])cc1` were above 719 nM, above 889 nM and above 10000 nM.
On to `O=C(c1cccs1)N(Cc1cccs1)c1ccc([N+](=O)[O-])cc1`, for which the concentration for a half-maximal effect (EC50) in data set [1] was found to be 677 nM; in data set [2], 888 nM. The compound also came in with a CC50 in data set [3] above 10000 nM.
The like results for `C=CCNC(=O)c1cc(OCc2ccccc2)c(OCc2ccccc2)c(OCc2ccccc2)c1` were, in that order, 10800 nM, 9180 nM and above 100000 nM.
Turning to `CCOc1ccc(C=NNC(=O)CCn2nnc3ccccc32)cc1`, the EC50 in data set [1] was above 1040 nM; in data set [2], above 1250 nM. Besides, in data set [3], the CC50 was above 13600 nM.
The like results for `CCOc1ccc(C(=O)Nc2cc(OC)ccc2OC)cc1` were, in that order, above 1250 nM, above 917 nM and above 10000 nM.
Take `CCCCCN(C(=O)Nc1ccccc1OC)C(C)c1nc2ccccc2c(=O)n1-c1ccccc1OCC` (centres undefined): the EC50 in data set [1] amounted to 843 nM; in data set [2], 917 nM. Besides, the CC50 in data set [3] is above 10000 nM.
Regarding `CCOc1ccc(C2=NC3(CCN(C(C)C)CC3)NC(c3cc(Cl)ccc3O)C2)cc1` (centres undefined), the EC50 stood at 7180 nM in data set [1] and 5480 nM in data set [2]. In data set [3], this compound showed a 50% cytotoxic concentration (CC50) of 59900 nM.
The like results for `Fc1ccc(-n2cc(-c3ccccc3)[n+]3c2SCC3)cc1` were, in that order, above 965 nM, above 911 nM and above 10000 nM.
Taken in the same sequence, the figures for `CCCCNCCN1CCN(c2cc(OC)cc(OC)c2)C[C@@H]1Cc1ccccc1` were above 1250 nM, 938 nM and 10300 nM.
Taken in the same sequence, the figures for `O=C(CN1CCCC1C(c1ccccc1)c1ccccc1)N1CCSCC1` (centres undefined) were above 1250 nM, above 1080 nM and 12000 nM.
In the case of `CCOC(=O)c1c(N)n(-c2ccc(NC(=O)c3cccc([N+](=O)[O-])c3)cc2)c2nc3ccccc3nc12`, the EC50 came to 320 nM in data set [1] and 1740 nM in data set [2]. For the same compound, the midpoint of cytotoxicity in data set [3], the CC50, lay at 19400 nM.
Taken in the same sequence, the figures for `COc1cccc(NC(=O)c2ccc3oc(=O)c(S(=O)(=O)c4ccccc4)cc3c2)c1` were above 1250 nM, above 898 nM and above 10000 nM.
The like results for `Cn1c(C(C#N)C(=S)NC2CCCCC2)nc2cccnc21` (centres undefined) were, in that order, above 1250 nM, above 894 nM and above 10000 nM.
`N#Cc1c(N)nc2sc(C(=O)c3ccc(F)cc3)c(N)c2c1-c1ccccc1`: the EC50 was above 1250 nM in data set [1] and above 915 nM in data set [2]. For the same compound, the CC50 in data set [3] was above 10000 nM.
For the compound `CC(=O)c1ccc(OCCSc2nc3c(N)ncnc3[nH]2)cc1`, the concentration giving a half-maximal response (EC50) is above 11200 nM in data set [1] and above 9150 nM in data set [2]. In data set [3], the CC50 is above 100000 nM.
In the case of `Cc1nc2c(-c3ccccc3)c(C)nn2c(C)c1CC(=O)NCc1ccccn1`, the EC50 in data set [1] was above 12500 nM; in data set [2] it was 9140 nM. Further, the 50% cytotoxic concentration (CC50) in data set [3] is above 100000 nM.
`CCOc1ccc(NC(=O)CSc2nc3cc(OCC)ccc3[nH]2)cc1`: the concentration giving a half-maximal response (EC50) is 900 nM in data set [1] and above 1250 nM in data set [2]. For the same compound, the CC50 in data set [3] was above 13800 nM.
Taken in the same sequence, the figures for `Cc1cc(C)n(N=Cc2cccc(Cl)c2)c(=O)c1C#N` were above 12500 nM, 9060 nM and above 100000 nM.
The like results for `Cc1c(C(=O)N2CCN(c3cccc(Cl)c3)CC2)sc2ncnc(N(C)c3ccccc3)c12` were, in that order, above 723 nM, above 906 nM and above 10000 nM.
The like results for `Cc1ccc(NC(=O)c2sc3nc4c(c(-c5ccc(C)cc5)c3c2N)CCC4)cc1` were, in that order, 2790 nM, 8940 nM and above 100000 nM.
Turning to `Oc1c(C(Nc2ccccn2)c2ccncc2)ccc2cccnc12` (centres undefined), the EC50 came to 830 nM in data set [1] and 892 nM in data set [2]. For the same compound, the CC50 in data set [3] was above 10000 nM.
The like results for `CCOc1ccccc1C1NC(=O)NC(C)=C1C(=O)OCC(F)(F)C(F)(F)F` (centres undefined) were, in that order, above 1250 nM, above 913 nM and above 10000 nM.
Taken in the same sequence, the figures for `Cc1ccc(C=Cc2ccc3ccccc3[n+]2C)cc1` were 59.4 nM, 1480 nM and 16300 nM.
With `CCOc1nc2c(c(=O)n(C)c(=O)n2C)n1Cc1cccc(Br)c1`, the half-maximal effective concentration (EC50) was above 1620 nM in data set [1] and above 885 nM in data set [2]. In addition, in data set [3], the half-maximal cytotoxic concentration (CC50) is above 10000 nM.
The like results for `C=CCc1cc([N+](=O)[O-])cc2c1OC1(C=C2)N(c2ccccc2)c2ccccc2C1(C)C` (centres undefined) were, in that order, 396 nM, 885 nM and above 10000 nM.
The like results for `O=C1c2ccccc2C(=O)C12C(c1ccc(Br)cc1)N(c1ccccc1)C1(C(=O)c3ccccc3C1=O)C2c1ccc(Br)cc1` (centres undefined) were, in that order, 510 nM, above 914 nM and above 10000 nM.
Taken in the same sequence, the figures for `COc1ccc(-c2nnc(NC(=O)CCN(CCc3ccc(OC)c(OC)c3)C(=O)c3cccc4ccccc34)s2)cc1` were 934 nM, above 1200 nM and above 13600 nM.
For `CC[n+]1c(/C=C2\C=C(C)CC(C)C2)sc2ccccc21` (centres undefined), the 50% effective concentration (EC50) in data set [1] is above 1140 nM; in data set [2], above 913 nM. The half-maximal cytotoxic concentration (CC50) in data set [3] is above 10000 nM.
On to `O=C(C1CCC1)N1CCN(c2ccccn2)CC1`, for which the EC50 in data set [1] was above 1250 nM; in data set [2] it was above 918 nM. The CC50 in data set [3] was above 10000 nM.
Taken in the same sequence, the figures for `O=C1c2ccc(-c3nc(-c4ccccc4)[nH]c3-c3ccccc3)cc2-c2cc(-c3[nH]c(-c4ccccc4)nc3-c3ccccc3)ccc21` were 9190 nM, 8930 nM and above 100000 nM.
The like results for `COc1ccc(/C=C2/SC(Nc3ccc(F)cc3)=NC2=O)c(OC)c1` were, in that order, 1060 nM, 916 nM and above 10000 nM.
Taken in the same sequence, the figures for `Cc1nc(N2CCC(C)CC2)c2c(C)c(C(=O)Nc3ccc(F)cc3)sc2n1` were 792 nM, above 912 nM and above 10000 nM.
With `CC(C)=CCC/C(C)=C/CCC(C)NCCN1CCNCC1` (centres undefined), the half-maximal effective concentration (EC50) in data set [1] was above 1100 nM; in data set [2], 911 nM. This compound also gave a cytotoxic concentration (CC50) in data set [3] above 10000 nM.
`CC[n+]1c(/C=C/C=C2\N(C)c3ccccc3C2(C)C)n(Cc2ccccc2)c2ccccc21`: the concentration giving a half-maximal response (EC50) in data set [1] worked out at 355 nM; in data set [2], 219 nM. The compound further came in with a CC50 in data set [3] of 2420 nM.
As for `O=[N+]([O-])c1ccc(NN=Cc2cccs2)c(S(=O)(=O)N2CCCCCC2)c1`, the EC50 was above 1250 nM in data set [1] and above 899 nM in data set [2]. Also, the cytotoxic concentration (CC50) in data set [3] is above 10000 nM.
For the compound `COCCN(CC(O)CNC(=O)c1ccc2ccccc2n1)S(=O)(=O)c1c(C)noc1C` (centres undefined), the concentration giving a half-maximal response (EC50) in data set [1] is above 90 nM; in data set [2] it was above 895 nM. The cytotoxic concentration (CC50) in data set [3] is above 10000 nM.
Taken in the same sequence, the figures for `Cc1ccccc1CNC(=O)c1oc2c(c1C)-c1[nH]ncc1CC2` were above 1250 nM, above 914 nM and above 10000 nM.
The like results for `COc1ccc(C2=C(c3ccc(OC)cc3)C3(c4ccccc4)C(=O)C2(c2ccccc2)C2C(=O)N(c4ccc(C)c(Br)c4)C(=O)C23)cc1` (centres undefined) were, in that order, 734 nM, 901 nM and above 10000 nM.
Consider `c1ccc(N=Nc2nnc(Nc3ccccc3)s2)cc1`, for which the EC50 is 957 nM in data set [1] and 884 nM in data set [2]. The half-maximal cytotoxic concentration (CC50) in data set [3] was above 10000 nM.
Taken in the same sequence, the figures for `O=C(Nc1ccc(Nc2cc([N+](=O)[O-])ccc2O)c2c1C(=O)c1ccccc1C2=O)c1ccccc1` were above 1250 nM, above 901 nM and above 10000 nM.
Taken in the same sequence, the figures for `CCC(NC1CCCCC1)c1nc2ccccc2c(=O)n1C` (centres undefined) were 1110 nM, 888 nM and above 10000 nM.
The like results for `CCOC(=O)CSc1nc2c(sc(=S)n2-c2ccc(Cl)c(C)c2)c(=O)n1-c1ccccc1OC` were, in that order, above 1250 nM, above 884 nM and above 10000 nM.
Take `CN(c1ccc(Cl)cc1)S(=O)(=O)c1ccc2[nH]cc(C(=O)NCCC3=CCCCC3)c(=O)c2c1`: the EC50 in data set [1] was above 1250 nM; in data set [2] it was above 911 nM. Further, the CC50 in data set [3] is above 10000 nM.

By EC50 is commonly meant the midpoint of the concentration-response curve. The term CC50 denotes the concentration at which the toxic effect on the cells reaches its halfway point.
